The record followed here is publication PMC9354638, “Targeting p21-activated kinase 4 (PAK4) with pyrazolo[3,4-d]pyrimidine derivative SPA7012 attenuates hepatic ischaemia-reperfusion injury in mice” (Journal of Enzyme Inhibition and Medicinal Chemistry, 2022).

What is called IC50 is the concentration that gives 50% inhibition. Broadly, the inhibition is the percentage by which the read-out fell short of the control.

Data set [1] deals with T1, PAK4 (Homo sapiens, UniProt O96013).
T1 construct: purchased Reaction Biology Corporation (Malvern, PA, USA)
Kind of data set: HotSpot kinase assay (Reaction Biology Corp.), PAK4 enzyme inhibition. In kind it is biochemical. The following applies: ATP 10 μM. As to the method: To examine the enzyme activity, HotSpot kinase assay was performed at Reaction Biology Corporation (Malvern, PA, USA). The kinase and substrate pairs were prepared in reaction buffer: 20 mM HEPES at pH 7.5, 10 mM MgCl2, 1 mM EGTA, 0.02% Brij 35, 0.02 mg/mL BSA, 0.1 mM Na3VO4, 2 mM DTT, and 1% DMSO. Compounds were added into the kinase reaction mixture and incubated for 20 min. Then, ^32 P-ATP was introduced to the mixture to initiate the reaction carried out at 10 μM of ATP concentration. After 2 h at room temperature, the mixture was spotted onto P81 ion exchange paper and kinase activity was then evaluated utilising the filter-binding method. Compounds were tested for single dose enzyme inhibition at a concentration of 20 μM. For the control compound, staurosporine was tested in a 10-dose IC50 mode. To determine the IC50 value, the compounds were tested for 10-doses with 3-fold serial dilution starting at 100 μM.
Synthesised compounds were evaluated for their in vitro PAK4 enzyme inhibitory activities. In vitro kinase assays were performed using HotSpot kinase assays for relative enzyme inhibitory activity at a single concentration (20 μM) and IC50 assessment at an ATP concentration of 10 μM (Figure 1(B)). […] For the allosteric pocket binder, cyclohexyl group (SPA7012) was preferable to the smaller dimethyl (SPA7011) or hydroxymethyl group (SPA7013), and the aromatic ring (SPA7014) reduced activity compared to the saturated ring (SPA7012). In vitro enzyme IC50 values appeared in the order of SPA7012, SPA7017, and SPA7016. […] Molecular docking analysis was performed on the human PAK4 catalytic domain structure complexed with GNE-2861 (PDB code: 4O0V). The binding pose of SPA7012 overlapped well with the crystal structure of GNE-2861, with the allosteric binder properly positioned in the specific back pocket. The oxygen atom in the tertiary alcohol of the hydrophobic allosteric binder formed hydrogen bonds with the backbone of Phe459 and the side chain of Glu366 (Figure 1(D)). The amine group and nitrogen atom in the pyrazolo[3,4-d]pyrimidine core scaffold also formed hydrogen bonds with Lue398 at the hinge region. Finally, SPA7012 was decided as a lead compound for further examination with satisfactory potency and subtype selectivity.

For data set [2], the system named is primary hepatocytes. In words: Hypoxia-reoxygenation (H/R) injury in primary hepatocytes. The format is cell-based, mouse. As to the method:
Primary hepatocytes were prepared from 8 to 10 week old C57BL/6 male mice by perfusion. […] Hepatocytes were resuspended in DMEM/F12 supplemented with 10% FBS, 10 units/mL penicillin, 10 μg/mL streptomycin, and 10 nM dexamethasone mixed with 42% Percoll, and then centrifuged for 5 min at 1,300 rpm. The cells were plated at 1 × 10^6 cells/well in 6-well culture dishes.
Primary hepatocytes were incubated at 37 °C in anaerobic jars (Oxoid, Basingstoke, Hampshire, UK) with oxygen-absorbing packs (AnaeroGen, Oxoid). […] Following various periods of hypoxia, reoxygenation of cells was initiated by opening the chamber and replacing the hypoxic medium with an oxygenated medium.
H/R-induced apoptosis was monitored using the Annexin V-propidium iodide (PI) double-staining kit (BD Biosciences, San Jose, CA, USA) according to the instructions of the manufacturer, allowing quantification by flow cytometry (BD Biosciences). The proportion of apoptotic cells was defined as the percentage of Annexin V-positive cells […].
Intracellular ROS levels were measured using 2′,7′-dichlorofluorescein diacetate (DCF-DA), which converts to fluorescent […] in cells when exposed to ROS. Briefly, after H/R injury, hepatocytes were loaded with 20 μM DCF-DA (Invitrogen) for 10 min at 37 °C. The DCF fluorescence intensity was measured by fluorescence spectrophotometry with 485 nm excitation and 538 nm emission and expressed as a percentage relative to control.
Alanine aminotransferase (ALT) and aspartate aminotransferase (AST) in serum (Asan Pharm, Seoul, Korea), glutathione (GSH, Arbour Assays, Ann Arbour, MI, USA), malondialdehyde (MDA, ab118970, Abcam, Cambridge, UK) in liver tissues, and lactate dehydrogenase (LDH, Biovision, Milpitas, CA, USA) in culture medium were analysed using specific kits. Serum levels of IL-1β, IL-6, TNF-α, and CCL-2 were detected using ELISA kits (all from Invitrogen).
Total RNA was extracted from frozen liver tissues or primary hepatocytes using TRIzol reagent (Invitrogen). RNA was treated with isopropanol, dried using 70% ethanol, and dissolved in diethyl pyrocarbonate-treated distilled water. First-strand cDNA was generated using the random hexamer primer provided in the first-strand cDNA synthesis kit (Applied Biosystems, Foster City, CA, USA). Specific primers were designed using PrimerBank (https://pga.mgh.harvard.edu/primerbank, Table 1). qPCR reactions were performed in a final volume of 10μ L containing 10 ng reverse-transcribed total RNA, 200 nM forward and reverse primers, and PCR master mixture. qPCR was performed in 384-well plates using an ABI Prism™ 7900HT Sequence Detection System (Applied Biosystems).
Nuclear and cytoplasmic fractions were prepared using the NE-PER Nuclear and Cytoplasmic Extraction kit (Thermo Fisher Scientific, Waltham, MA, USA). Tissue homogenates or cell lysates (15 μg) were separated by 6–14% SDS-PAGE and transferred to PVDF membranes. After blocking with 5% skim milk, blots were probed with primary antibodies against: PAK4 (G222), p-PAK4 (S474), p-IKKβ (S176/180), p-IκBα (S32), p-p65 (S536), cleaved caspase-3 (Asp175), Bax (Cell Signalling Technology, Beverly, MA, USA), GAPDH (A531), lamin B1(L75), Bcl2(P65), NQO1 (F252) (Bioworld Technology, St Louis Park, MN, USA), NF-κB p65 (C-20), IKBα (H-4), IKKβ (10A9B6) (Santa Cruz Biotechnology, Dallas, TX, USA), Nrf2 (Proteintech, Rosemont, IL, USA), HO-1 (Enzo Life Sciences, Farmingdale, New York, USA), and p-Thr (Merck KGaA, Darmstadt, Germany). For co-immunoprecipitations, 600 μg protein was incubated with anti-Nrf2 antibodies (Proteintech, Sankt Leon-Rot, Germany) overnight at 4 °C followed by protein G agarose for 2 h at 4 °C. Blots were probed with antibodies against PAK4, Nrf2, or p-Thr. Immunoreactive bands were detected with a Las-4000 imager (GE Healthcare Life Science, Pittsburgh, PA, USA).

T1 sequence (O96013 whole entry): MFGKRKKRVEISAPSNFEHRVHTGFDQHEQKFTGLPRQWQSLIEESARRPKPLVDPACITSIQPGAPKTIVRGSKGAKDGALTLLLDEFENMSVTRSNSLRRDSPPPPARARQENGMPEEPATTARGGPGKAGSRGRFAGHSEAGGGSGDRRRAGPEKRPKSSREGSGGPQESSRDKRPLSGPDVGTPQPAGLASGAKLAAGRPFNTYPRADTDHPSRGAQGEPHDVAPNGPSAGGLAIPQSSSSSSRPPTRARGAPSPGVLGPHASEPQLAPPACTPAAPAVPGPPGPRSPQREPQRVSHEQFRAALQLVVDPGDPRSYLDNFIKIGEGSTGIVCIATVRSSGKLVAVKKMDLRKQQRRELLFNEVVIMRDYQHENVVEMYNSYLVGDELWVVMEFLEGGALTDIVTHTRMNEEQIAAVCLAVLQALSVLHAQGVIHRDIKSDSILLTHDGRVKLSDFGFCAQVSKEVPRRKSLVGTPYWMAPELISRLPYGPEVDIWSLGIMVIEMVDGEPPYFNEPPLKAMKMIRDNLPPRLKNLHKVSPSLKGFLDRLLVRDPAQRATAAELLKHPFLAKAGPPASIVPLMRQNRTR

Turning to `Cc1nn(-c2cccc(C#CC3(O)CCCCC3)c2)c2ncnc(N)c12` [Compound 14b, 3-(4-Amino-3-methylpyrazolo[3,4-d]pyrimidin-1-yl)phenylethynylcyclohexan-1-ol], the IC50 in data set [1] (10-dose, 3-fold serial dilution starting at 100 μM) was determined as 770 nM. The inhibition at 20 µM in data set [1] (relative percentage inhibition at 20 μM of compounds with staurosporine, read-out: PAK4 enzyme inhibition % inhibitory activity) amounted to 97%. Besides, in data set [2] (1 μM), the “H/R-induced oxidative stress (DCF fluorescence, MDA, GSH)” value is on record as “decrease”. In data set [2] (1 μM before reoxygenation, 12 h reoxygenation, vs only H/R), the “Cell damage (LDH release) after H/R” value is given as “markedly decreased”. Moreover, the “H/R-induced apoptotic cell death” value in data set [2] (1 μM, Annexin-V staining and Western blotting) is recorded as “decrease”. In data set [2] (1 μM, H/R, vs control group), the “Phosphorylation levels of IKKβ and p65 in primary hepatocytes” value is recorded as “decreased”; the “Protein levels of IκBα in primary hepatocytes” value was “increased”. Besides, the H/R-induced cytokine release entry in data set [2] (1 μM, culture media protein and hepatocyte mRNA) is “decrease”.
